Results taken from US5373089A, “Oxytocin antagonist” (Northwestern University, priority 1993, dated 1994).
Starred links: 1 amine or outer side, 2 acyl side, 3 side chain; linkers in the order of their positions; H or OH if unused. Positions of bridges follow the written chain, without caps; N, C: chain ends. Non-standard residues stand in square brackets, D forms with d. Residues, ends and D or L forms follow the SMILES beside them. X1 = O=C(CC1(S[*:2])CCCCC1)[*:1]

Assays:
[1] = biological target: T1, RAT OXYTOCIN RECEPTOR (Rattus norvegicus, UniProt P70536); test: Oxytocin receptor assay, pregnant rat uterus (P21) membranes, 3H-OT competition; assay type: binding
T1 construct: from tissue; host or cells: uterus of day-21 pregnant Holtzman rats, sucrose-gradient membrane fraction
T1 sequence (P70536 1-388): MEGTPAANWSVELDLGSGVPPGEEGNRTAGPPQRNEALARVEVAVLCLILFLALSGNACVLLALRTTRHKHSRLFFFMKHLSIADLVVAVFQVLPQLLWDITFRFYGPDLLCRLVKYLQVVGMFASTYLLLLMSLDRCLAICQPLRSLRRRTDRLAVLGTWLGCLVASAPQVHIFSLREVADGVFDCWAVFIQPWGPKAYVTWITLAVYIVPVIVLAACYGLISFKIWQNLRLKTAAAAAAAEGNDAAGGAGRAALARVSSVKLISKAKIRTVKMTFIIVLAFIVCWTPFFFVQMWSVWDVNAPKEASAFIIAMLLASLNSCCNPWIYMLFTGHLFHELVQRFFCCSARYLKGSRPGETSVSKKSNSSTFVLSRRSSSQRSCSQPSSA
Procedure: Uterine tissue was removed on day 21 of pregnancy (delivery=Days 211/2 to 221/2) from Holtzman rats. The tissue was emptied of its contents, rinsed in ice cold buffer, cut into small pieces and frozen at -70° C. until homogenization.
(§1) Oxytocin receptors (OTrs) reside on the cell membrane and are present at high concentrations at the end of pregnancy in uterine tissue. Frozen tissue is homogenized in Tris buffer, the homogenate filtered, and the filtrate centrifuged at 1000 g for 15 minutes at 4° C. The supernatant is centrifuged at 40,000 g for 30 minutes and the pellet containing the cell membranes resuspended in 10% sucrose. Density gradient ultracentrifugation is then performed by placing the 10 % sucrose suspension on top of 35% sucrose and centrifuging for 30 minutes in a swing bucket rotor at 105,000 g. The membranes at the interface of the 10%/35% sucrose are removed and resuspended in Tris buffer containing EDTA for 30 minutes. This procedure removes divalent cation and results in dissociation of any endogenously bound OT to the receptor. This mixture is then centrifuged for 15 minutes at 100,000 g and the pellet containing the membrane OTrs resuspended in Tris, PMSF, Mg^++, buffer by sonication.
(§2) The binding assay consist of 0.1 ml of 20,000 cmp of tritium labeled OT (New England Nuclear, […]), 0.1 ml of OT antagonist added at increasing concentration, 0.25 ml of buffer and 0.05 ml of membrane (70-150 ug protein). A nonspecific tube has 100× of cold OTA added to it. The incubation is for 30 minutes at 30 ° C. The membrane is pelleted by centrifugation in ultraclear mini tubes (5×41 mm) for 30 minutes at 105,000 g. The resulting pellet containing the bound ^3 H-OT is dissolved in 0.1N NaOH at 45 ° C. for 30 minutes and this mixture is then placed in liquid scintillation counting fluid and counted for dpms in a scintillation counter.
(§3) The data is analyzed by nonlinear curve fitting methods using McPherson's EBDA (J Pharmacol Methods 14:213-228, 1985) and Munson and Rodbard's LIGAND (Anal Biochem 107:220-239, 1980) program for saturation and competition analysis for determining Kds and Kis.

[2] = biological target: T2, HUMAN OXYTOCIN RECEPTOR (Homo sapiens, UniProt P30559); test: Oxytocin receptor assay, human myometrial tissue membranes, 3H-OT competition; assay type: binding
T2 construct: Oxytocin receptors (OTrs) reside on the cell membrane and are present at high concentrations at the end of pregnancy in uterine tissue; from tissue; host or cells: human myometrium from cesarean section patients, sucrose-gradient membrane fraction
T2 sequence (P30559 1-389): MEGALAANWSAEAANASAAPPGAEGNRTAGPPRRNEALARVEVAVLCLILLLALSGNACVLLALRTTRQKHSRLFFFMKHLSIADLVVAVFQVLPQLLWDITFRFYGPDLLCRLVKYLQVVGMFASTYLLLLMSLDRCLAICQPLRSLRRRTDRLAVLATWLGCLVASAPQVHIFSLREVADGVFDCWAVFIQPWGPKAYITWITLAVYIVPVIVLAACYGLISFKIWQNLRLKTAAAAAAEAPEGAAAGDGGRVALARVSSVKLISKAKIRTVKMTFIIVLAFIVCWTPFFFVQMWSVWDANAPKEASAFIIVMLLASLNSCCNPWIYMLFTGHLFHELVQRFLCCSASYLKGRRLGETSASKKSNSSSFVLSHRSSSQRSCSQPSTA
Procedure: Human myometrial tissue was collected from patients at the time of cesarian section after informed consent. The tissue was rinsed in cold buffer, cut into small pieces and frozen at -70° C. until homogenization.
as §1, §2, §3

[3] = system: pregnant baboon; test: Oxytocin challenge test in tethered pregnant baboon (antagonists-response interval); assay type: in vivo; conditions: for ARI (OTA/ANTI): ratio to ANTAG I
Procedure: The baboon is an excellent animal model because of its physiologic and anatomic similarity to humans (see articles by our laboratory: Am J Obstet Gynecol. 163:1815-1882, 1990; Am J Obstet Gynecol 165:456-560, 1991; Am J Obstet Gynecol 165:1487-1498, 1991; articles by other laboratories: Endocrine Reviews 11:124-150, 1990; 11:151-176, 1990). Pregnant tethered baboons were studied between 130 to 145 days of pregnancy Delivery=day 184). The oxytocin antagonists were administered as a single bolus injection of 1 mg intra-arterially followed 1 minute later by the infusion of oxytocin. […] This oxytocin antagonist was not produced in our laboratory and is not an oxytocin analog.

Row | RECEPTOR ASSAY Ka ([1]; pregnant rat uterus (P21), Table 3) | rOTr (OTA/ANTI) ([1]; ratio of binding affinity to ANTAG I, rat oxytocin receptor) | Compound | Kd [1] [nM] | Kd [2] [nM] | ARI (antagonists-response interval) ([3]; 1 mg single bolus intra-arterially, then oxytocin infusion, pregnant baboon day 130-145) | time for which the response to oxytocin was blocked ([3]; one mg, pregnant baboon) | ARI (OTA/ANTI) [3] | ARI (OTA/ANTI) ([3]; listed as ANTAG III) | ARI (OTA/ANTI) ([3]; listed as compound D)
1 |  |  | CC[C@H](C)[C@@H]1NC(=O)[C@H](Cc2ccccc2)NC(=O)[C@@H](Cc2c[nH]c3ccccc23)NC(=O)CC2(CCCCC2)SSC[C@@H](C(=O)N2CCC[C@H]2C(=O)N[C@@H](CCCNC(=N)N)C(=O)NCC(N)=O)NC(=O)[C@H](CC(N)=O)NC1=O [Compound B, [Pmp^1,D-Trp^2,Phe^3,Ile^4,Arg^8] oxytocin] ([dW]FINCPRG-NH2; linker N-5 via X1) | 8.62 | 19.6 |  |  |  |  | 
2 | 24.40 10^+8 M^-1 | 20.0 | [(S)Pmp^1,D-Trp^2,Pen^6,Arg^8 ] oxytocin [Compound D] |  |  | 7856 | greater than 24 hours | 133 | 133 | about 130
